# Test system: potassium ion channels
# Test: Rubidium (Rb+) efflux assay in NGF-differentiated PC-12 cells
# Assay type: cell-based
# Details: depolarization buffer with 15 mM KCl, 10 min at room temperature, read-out: EC50 (compound's concentration for 50% of maximal Rb+ efflux)
# Experimental: Several typical compounds of this invention were assayed as potassium channel modulators by measuring rhubidium release.
# Methods: PC-12 cells were grown at 37° C. and 5% CO2 in DMEM/F12 Medium supplemented with 10% horse serum, 5% fetal bovine serum, 2 mM glutamine, 100 U/ml penicillin, 100 U/ml streptomycin. They were plated in poly-D-lysine-coated 96-well cell culture microplates at a density of 40,000 cells/well and differentiated with 100 ng/ml NGF-7s for 2-5 days. For the assay, the medium was aspirated and the cells were washed once with 0.2 ml in wash buffer (25 mM HEPES, pH 7.4, 150 mM NaCl, 1 mM MgCl2, 0.8 mM NaH2PO4, 2 mM CaCl2). The cells were then loaded with 0.2 ml Rb^+ loading buffer (wash buffer plus 5.4 mM […], 5 mM glucose) and incubated at 37° C. for 2 h. Attached cells were quickly washed three times with buffer (same as Rb^+ loading buffer, but containing 5.4 mM KCl instead of RbCl) to remove extracellular Rb^+. Immediately following the wash, 0.2 ml of depolarization buffer (wash buffer plus 15 mM KCl) with or without compounds was added to the cells to activate efflux of potassium ion channels. After incubation for 10 min at room temperature, the supernatant was carefully removed and collected. Cells were lysed by the addition of 0.2 ml of lysis buffer (depolarization buffer plus 0.1% Triton X-100) and the cell lysates were also collected. If collected samples were not immediately analyzed for Rb^+ contents by atomic absorption spectroscopy (see below), they were stored at 4° C. without any negative effects on subsequent Rb^+ analysis.
# The concentration of Rb^+ in the supernatants (Rb^+Sup) and cell lysates (Rb^+Lys) was quantified using an ICR8000 flame atomic absorption spectrometer (Aurora Biomed Inc., Vancouver, B.C.) under conditions defined by the manufacturer. One 0.05 ml samples were processed automatically from microtiter plates by dilution with an equal volume of Rb^+ sample analysis buffer and injection into an air-acetylene flame. The amount of Rb^+ in the sample was measured by absorption at 780 nm using a hollow cathode lamp as light source and a PMT detector. A calibration curve covering the range 0-5 mg/L Rb^+ in sample analysis buffer was generated with each set of plates. The percent Rb^+ efflux (F) was defined by F=[Rb^+Sup/(Rb^+Sup+Rb^+Lys)]×100% The effect (E) of a compound was defined by: E=[(Fc−Fb)/(Fs−Fb)]×100% where the Fc is the efflux in the presence of compound in depolarization buffer, Fb is the efflux in basal buffer, and Fs is the efflux in depolarization buffer, and. The effect (E) and compound concentration relationship was plotted to calculate an EC50 value, a compound's concentration for 50% of maximal Rb^+ efflux.
row,SMILES,EC50 [nM]
1,CCOC(=O)Nc1cc2c(cc1N)C(Nc1ccc(C(F)(F)F)cc1)CCC2 (stereo not shown),> 5000
2,CC(C)(C)CC(=O)Nc1cc2c(cc1N)C(Nc1ccc(F)cc1)CC2 (stereo not shown),500 to 5000
3,CCOC(=O)Nc1ccc2c(c1N)CCC2Nc1ccc(F)cc1 (stereo not shown),500 to 5000
4,CCOC(=O)Nc1ccc2c(c1N)CCCC2Nc1ccc(C(F)(F)F)cc1 (stereo not shown),> 5000

# The next lines start with the values.
row,EC50 [nM],SMILES
1,< 500,CC(C)(C)CC(=O)Nc1cc2c(cc1N)C(Nc1ccc(C(F)(F)F)cc1)CC2 (stereo not shown)
2,< 500,Nc1cc2c(cc1NC(=O)CCC1CCCC1)CCC2Nc1ccc(C(F)(F)F)cc1 (stereo not shown)
3,< 500,Nc1cc2c(cc1NC(=O)CCC1CCCC1)CCC2Nc1ccc(F)cc1 (stereo not shown)

# From patent publication US7960436B2, “Substituted arylamino-1,2,3,4-tetrahydro naphthalenes and-2,3-dihydro-1H-indenes as potassium channel modulators” (Valeant Pharmaceuticals International, priority 2006, dated 2011)
